Experimental data reported in US6933290B2, “2-{N-(2-amino-3-(heteroaryl or aryl)propionyl)-aminoacyl}-amino}-alkylboronic acid derivatives” (Novartis AG, priority 2001, dated 2005).

Target: T1, chymotrypsin-like activity of the 20S proteasome (Homo sapiens, UniProt P20618+P28074)
T1 construct: purified human placenta 20S proteasome; tissue Diabetes Forschungsinstitut, Düsseldorf, Germany; host or cells: human placenta
Test: Inhibition of the chymotrypsin-like activity of the 20S proteasome (Suc-LLVY-AMC hydrolysis)
Format: biochemical
Settings: purified human placenta 20S proteasome, Suc-LLVY-AMC substrate, read-out: IC50 [μM] (results of one or two experiments)
How it was run: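 Purified human placenta 20S proteasome was preincubated 60 min at room temperature with compound (20 μM final) in 20 mM Tris/HCl pH 8.0 with 5 mM CaCl2. Suc-LLVY-AMC (80 μM final) was then hydrolysed for 3-24 h at 37° C, with fluorescence read at ex 355/em 460 nm. IC50 is the concentration leaving 50% activity.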

Compound	IC50
COc1ccc(C[C@H](Nc2cccc(-c3ccccc3)c2)C(=O)N[C@H](C(=O)N[C@@H](Cc2ccccc2)B(O)O)C(C)C)cc1 [Example 52, (R)-1-{(S)-2-[(S)-2-(Biphenyl-3-ylamino)-3-(4-methoxy-phenyl)-propionylamino]-3-methyl-butyrylamino}-2-phenyl-ethylboronic acid]	0.005 µM
(R)-1-{(S)-2-[(S)-2-(3-Isopropyl-phenylamino)-3-(3,4,5-trimethoxy-phenyl)-propionylamino]-propionylamino}-3-methyl-butylboronic acid [Example 46]	0.0019 µM
(R)-1-{(S)-2-[(S)-2-(Biphenyl-3-ylamino)-3-(3,4,5-trimethoxy-phenyl)-propionylamino]-4-methyl-pentanoylamino}-3-methyl-butylboronic acid [Example 34]	0.0013 µM
